Test results as given in patent US20240140944A1, “NOVEL NAPHTHYRIDINONE DERIVATIVE HAVING INHIBITORY ACTIVITY AGAINST ECTONUCLEOTIDE PYROPHOSPHATASE-PHOSPHODIESTERASE AND USE THEREOF” (TXINNO BIOSCIENCE INC., priority 2020, published 2024).
pIC50: −log10 of the molar value. Where a name gives a salt, the structure may show the parent alone.

Key:
[1] = target: T1, human recombinant ENPP1 enzymes (Homo sapiens, UniProt P22413); test: ENPP1 Enzyme Assay with cGAMP Substrate (AMP-Glo); type: biochemical; details: human recombinant ENPP1 3 ng/reaction, cGAMP 5 μM, 37° C. 90 minutes, average of two or more tests; read-out: Enzymatic activity IC50
T1 construct: purchased R & D systems
T1 sequence (P22413 1-925): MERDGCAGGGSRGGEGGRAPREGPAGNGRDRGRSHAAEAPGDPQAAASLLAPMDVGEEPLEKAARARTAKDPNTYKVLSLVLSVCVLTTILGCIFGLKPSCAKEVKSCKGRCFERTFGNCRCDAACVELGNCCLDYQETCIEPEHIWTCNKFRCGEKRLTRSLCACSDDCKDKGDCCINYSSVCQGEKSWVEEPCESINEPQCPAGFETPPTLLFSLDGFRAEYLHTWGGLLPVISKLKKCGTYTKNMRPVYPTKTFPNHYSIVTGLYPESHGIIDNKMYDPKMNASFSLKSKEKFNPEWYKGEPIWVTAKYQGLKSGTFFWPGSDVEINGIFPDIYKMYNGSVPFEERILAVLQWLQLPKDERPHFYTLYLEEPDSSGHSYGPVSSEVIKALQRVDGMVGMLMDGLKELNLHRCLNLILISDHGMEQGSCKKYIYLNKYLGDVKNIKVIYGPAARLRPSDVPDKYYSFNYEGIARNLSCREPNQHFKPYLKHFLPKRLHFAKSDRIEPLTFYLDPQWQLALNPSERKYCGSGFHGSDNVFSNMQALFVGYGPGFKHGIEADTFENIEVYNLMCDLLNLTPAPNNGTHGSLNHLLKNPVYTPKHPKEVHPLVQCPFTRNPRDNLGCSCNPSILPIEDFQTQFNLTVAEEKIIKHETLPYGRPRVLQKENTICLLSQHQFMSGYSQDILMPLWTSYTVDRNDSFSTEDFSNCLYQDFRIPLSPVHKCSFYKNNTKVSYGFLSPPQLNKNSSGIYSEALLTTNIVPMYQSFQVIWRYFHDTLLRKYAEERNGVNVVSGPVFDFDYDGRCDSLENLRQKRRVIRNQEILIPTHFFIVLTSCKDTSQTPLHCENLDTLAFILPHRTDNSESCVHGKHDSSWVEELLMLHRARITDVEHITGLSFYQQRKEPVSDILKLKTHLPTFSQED
Procedure, shortened: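 Human recombinant ENPP1 (3 ng/reaction) preincubated 5–10 min at RT with inhibitor, then reacted with 5 µM cGAMP for 90 min at 37 °C in 50 mM Tris pH 8.5, 250 mM NaCl, 0.5 mM CaCl2, 1 µM ZnCl2, 1% DMSO. AMP produced read by AMP-Glo luminescence; IC50 from 3-parameter fit, averaged over ≥2 runs.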

[2] = tested on: interferon regulatory factor 3 (IRF3) in HCT116-Dual cells; test: HCT116-Dual Cell Luciferase Assay (ISG54 promoter, IRF3 activity); type: cell-based; details: ENPP1 inhibitor usually 10 μM plus cGAMP 10 μM, 48 hours, Lucia luciferase
From the text: HCT116-Dual™ cells express genes encoding luciferase secreted under the control of the interferon-stimulated gene 54 (ISG54) promoter along with five interferon-stimulated response elements. The HCT116-Dual™ cell line was used to measure and monitor the activity of interferon regulatory factor 3 (IRF3), which induces production of type I interferon and relates to downstream signaling, and Lucia secreted in the culture medium was used to generate luminescence in a luciferase reaction.
HCT116-Dual™ cells were cultured at 2×10^4 cells/well (93.4 μL) in a 96-well plate for one day in a DMEM medium containing 10% FBS and 25 mM HEPES (pH 7.2-7.5). The cells were treated with 3.3 μL of ENPP1 inhibitor (usually 10 μM) and then 3.3 μL of cGAMP (10 μM) to set the final volume to 100 μL (The final fraction of DMSO was 0.1%). The cells treated with ENPP1 inhibitor and cGAMP were cultured at 37° C. for 48 hours and 50 μL of Quanti-Luc reaction solution was added to 20 μL of cell culture medium to measure luciferase activity. The increase in interferon regulatory factor 3 (IRF3) by the compound compared to cGAMP was determined as fold.

Row | Compound | pIC50 [1] | Cellular activity: increase in IRF3 by the compound compared to cGAMP, as fold [2]
1 | Cl.NCc1ccc(-c2ccnc3[nH]c(=O)ccc23)c(F)c1 [Example 11, 5-(4-(aminomethyl)-2-fluorophenyl)-1,8-naphthyridin-2(1H)-one hydrochloride] | > 6.00 | A (>2)
2 | Cl.NS(=O)(=O)N1CCc2ccc(-c3ccnc4c3CCC(=O)N4)cc2C1 [Example 145, (7-(7-oxo-5,6,7,8-tetrahydro-1,8-naphthyridin-4-yl)-3,4-dihydroisoguinolin-2(1H)-yl)sulfamide hydrochloride] | > 6.00 | B (1< Fold <2)
3 | NS(=O)(=O)NCc1ccc(-c2ccnc3[nH]c(=O)ccc23)c(F)c1F [Example 43, N-(2,3-difluoro-4-(7-oxo-7,8-dihydro-1,8-naphthyridin-4-yl)benzyl)sulfamide hydrochloride] | > 6.00 | B (1< Fold <2)
4 | NS(=O)(=O)N1CCc2ccc(-c3ccnc4[nH]c(=O)ccc34)cc2C1 [Example 65, 7-(7-oxo-7,8-dihydro-1,8-naphthyridin-4-yl)dihydroisoquinoline-2(1H)-sulfamide hydrochloride] | > 6.00 | B (1< Fold <2)
5 | Cl.O=c1ccc2c(-c3ccc(CNC4CC4)cc3F)ccnc2[nH]1 [Example 22, 5-(4-((cyclopropylamino)methyl)-2-fluorophenyl)-1,8-naphthyridin-2(1H)-one hydrochloride] | 5.00 to 6.00 | B (1< Fold <2)
6 | NS(=O)(=O)NCc1ccc(-c2ccnc3[nH]c(=O)ccc23)c(F)c1 [Example 42, N-(3-fluoro-4-(7-oxo-7,8-dihydro-1,8-naphthyridin-4-yl)benzyl)sulfamide hydrochloride] | > 6.00 | A (>2)
7 | CN(Cc1ccc(-c2ccnc3[nH]c(=O)ccc23)c(F)c1)S(N)(=O)=O.Cl [Example 55, N-(3-fluoro-4-(7-oxo-7,8-dihydro-1,8-naphthyridin-4-yl)benzyl)-N-methylsulfamide hydrochloride] | > 6.00 | B (1< Fold <2)
8 | NS(=O)(=O)NCc1cccc(-c2ccnc3[nH]c(=O)ccc23)c1 [Example 37, N-(3-(7-oxo-7,8-dihydro-1,8-naphthyridin-4-yl)benzyl)sulfamide] | > 6.00 | B (1< Fold <2)
9 | CC(C)NCc1ccc(-c2ccnc3[nH]c(=O)ccc23)c(F)c1.Cl [Example 21, 5-(2-fluoro-4-((isopropylamine)methyl)phenyl)-1,8-naphthyridin-2(1H)-one hydrochloride] | < 5.00 | B (1< Fold <2)
10 | CN(Cc1ccc(-c2ccnc3[nH]c(=O)ccc23)cc1F)S(N)(=O)=O.Cl [Example 52, N-(2-fluoro-4-(7-oxo-7,8-dihydro-1,8-naphthyridin-4-yl)benzyl)-N-methylsulfamide hydrochloride] | > 6.00 | B (1< Fold <2)
11 | CCN(Cc1ccc(-c2ccnc3[nH]c(=O)ccc23)c(F)c1)S(N)(=O)=O.Cl [Example 56, N-ethyl-N-(3-fluoro-4-(7-oxo-7,8-dihydro-1,8-naphthyridin-4-yl)benzyl)sulfamide hydrochloride] | > 6.00 | B (1< Fold <2)
12 | Cl.O=c1ccc2c(-c3cc4c(cc3F)CCNC4)ccnc2[nH]1 [Example 28, 5-(6-fluoro-1,2,3,4-tetrahydroisoquinolin-7-yl)-1,8-naphthyridin-2(1H)-one hydrochloride] | > 6.00 | B (1< Fold <2)
13 | NS(=O)(=O)Nc1ccc(Nc2ccnc3[nH]c(=O)ccc23)cc1 [Example 97, N-(4-((7-oxo-7,8-dihydro-1,8-naphthyridin-4-yl)amino)phenyl)sulfamide dihydrochloride] | > 6.00 | B (1< Fold <2)
14 | NS(=O)(=O)N1CCc2ccc(Nc3ccnc4[nH]c(=O)ccc34)cc2C1 [Example 102, 7-((7-oxo-7,8-dihydro-1,8-naphthyridin-4-yl)amino)-3,4-dihydroisoquinolin-2(1H)-yl)sulfamide dihydrochloride] | > 6.00 | A (>2)
15 | NS(=O)(=O)N1Cc2ccc(-c3ccnc4[nH]c(=O)ccc34)cc2C1 [Example 64, 5-(7-oxo-7,8-dihydro-1,8-naphthyridin-4-yl)isoindolin-2-yl)sulfamide hydrochloride] | > 6.00 | B (1< Fold <2)
16 | Cl.NCc1ccc(-c2ccnc3[nH]c(=O)ccc23)cc1 [Example 10, 5-(4-(aminomethyl)phenyl)-1,8-naphthyridin-2(1H)-one hydrochloride] | > 6.00 | B (1< Fold <2)
17 | CN(CCc1cccc(Nc2ccnc3[nH]c(=O)ccc23)c1)S(N)(=O)=O [Example 93, N-methyl-N-(3-((7-oxo-7,8-dihydro-1,8-naphthyridin-4-yl)amino)phenethyl)sulfamide dihydrochloride] | > 6.00 | B (1< Fold <2)
18 | NS(=O)(=O)Nc1cccc(-c2ccnc3[nH]c(=O)ccc23)c1 [Example 35, N-(3-(7-oxo-7,8-dihydro-1,8-naphthyridin-4-yl)phenyl)sulfamide hydrochloride] | > 6.00 | B (1< Fold <2)
19 | Cl.NCc1ccc(-c2ccnc3[nH]c(=O)ccc23)cc1F [Example 12, 5-(4-(aminomethyl)-3-fluorophenyl)-1,8-naphthyridin-2(1H)-one hydrochloride] | > 6.00 | A (>2)
20 | C[C@@H](c1ccc(-c2ccnc3[nH]c(=O)ccc23)cc1)N(C)S(N)(=O)=O [Example 61, (S)-(N-methyl-N-(1-(4-(7-oxo-7,8-dihydro-1,8-naphthyridin-4-yl)phenyl)ethyl)sulfamide hydrochloride] | > 6.00 | B (1< Fold <2)
21 | CC(N)c1ccc(-c2ccnc3[nH]c(=O)ccc23)cc1.Cl (stereo not drawn) [Example 14, 5-(4-(1-aminoethyl)phenyl)-1,8-naphthyridin-2(1H)-one hydrochloride] | > 6.00 | B (1< Fold <2)
22 | NS(=O)(=O)NCc1ccc(-c2ccnc3c2CCC(=O)N3)cc1F [Example 142, N-(2-fluoro-4-(7-oxo-5,6,7,8-tetrahydro-1,8-naphthyridin-4-yl)benzyl)sulfamide] | > 6.00 | B (1< Fold <2)
23 | Cl.NCc1ccc(-c2ccnc3[nH]c(=O)ccc23)c(F)c1F [Example 13, 5-(4-(aminomethyl)-2,3-difluorophenyl)-1,8-naphthyridin-2(1H)-one hydrochloride] | > 6.00 | A (>2)
24 | CCN(CCc1cccc(Nc2ccnc3[nH]c(=O)ccc23)c1)S(N)(=O)=O [Example 94, N-ethyl-N-(3-((7-oxo-7,8-dihydro-1,8-naphthyridin-4-yl)amino)phenethyl)sulfamide dihydrochloride] | > 6.00 | B (1< Fold <2)
